16 molecules from ChEMBL document CHEMBL3877294, “Discovery of Ruzasvir (MK-8408): A Potent, Pan-Genotype HCV NS5A Inhibitor with Optimized Activity against Common Resistance-Associated Polymorphisms” (J Med Chem, 2017) can be followed below.

Common to all, as to format: cell-based
In test [1] the test system is Huh-7. As to the kind of experiment: Inhibition of HCV genotype-2b NS5A harboring methionine at position 31 infected in human HuH7 cells by luciferase reporter gene assay. The note with it: Hepatitis C virus subtype 2b.
Test [2] concerns T1, Nonstructural protein 5A (Hepatitis C virus), Q5L478 [Y93H].
T1 sequence (whole entry): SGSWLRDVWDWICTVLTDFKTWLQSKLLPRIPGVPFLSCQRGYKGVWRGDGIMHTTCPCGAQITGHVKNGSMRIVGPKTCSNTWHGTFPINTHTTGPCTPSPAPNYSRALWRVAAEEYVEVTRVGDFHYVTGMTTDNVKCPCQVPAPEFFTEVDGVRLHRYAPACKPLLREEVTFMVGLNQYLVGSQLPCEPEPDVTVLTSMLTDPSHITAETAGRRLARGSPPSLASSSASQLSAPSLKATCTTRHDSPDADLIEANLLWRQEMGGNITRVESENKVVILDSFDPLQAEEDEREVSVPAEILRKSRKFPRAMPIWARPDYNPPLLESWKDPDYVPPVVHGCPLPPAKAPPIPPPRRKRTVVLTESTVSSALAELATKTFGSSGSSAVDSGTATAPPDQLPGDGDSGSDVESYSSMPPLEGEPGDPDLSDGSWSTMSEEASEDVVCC
As to the kind of experiment: Inhibition of HCV genotype-1a NS5A Y93H mutant infected in human HuH7 cells by luciferase reporter gene assay. The note with it: Hepatitis C virus subtype 1a; Huh-7. Background: Reporter assays use an easily measured gene product as a stand-in for the process of interest.

Test [3] has as its system Huh-7. As to the kind of experiment: Inhibition of HCV genotype-3a NS5A infected in human HuH7 cells by luciferase reporter gene assay. The note with it: Hepatitis C virus subtype 3a.
Test [4] relates to Huh-7. Kind of test: Inhibition of HCV genotype-4a NS5A infected in human HuH7 cells by luciferase reporter gene assay. The note with it: Hepatitis C virus subtype 4a.
Test [5] has as its system Huh-7. Kind of test: Inhibition of HCV genotype-1a NS5A infected in human HuH7 cells by luciferase reporter gene assay. The note with it: Hepatitis C virus subtype 1a.
For test [6], the system named is Nonstructural protein 5A (Hepatitis C virus), Q5L478 [UNDEFINED MUTATION]. As to the kind of experiment: Inhibition of HCV genotype-1a NS5A L31V mutant infected in human HuH7 cells by luciferase reporter gene assay. The note with it: Hepatitis C virus subtype 1a; Huh-7.

SMILES strings stand for the structures.

As for `COC(=O)N[C@H](C(=O)N1CCC[C@H]1c1ncc(-c2cc(F)c3c(c2)OC(c2cnc(C4CC4)o2)n2c-3cc3cc(-c4cnc([C@@H]5CCCN5C(=O)[C@@H](NC(=O)OC)C(C)C)[nH]4)ccc32)[nH]1)C(C)C` (stereo partly specified), the EC90 (usually the concentration needed for an effect of 90%) with Huh-7 [1] was 1100 pM; in test [2], 1800 pM; in the test on Huh-7 [3] it was 180 pM; with Huh-7 [4], 30 pM; with Huh-7 [5], 7 pM; in test [6], 460 pM.
Turning to `COC(=O)N[C@H](C(=O)N1CCC[C@H]1c1ncc(-c2cc(F)c3c(c2)OC(c2cnc(C(F)F)s2)n2c-3cc3cc(-c4cnc([C@@H]5CCCN5C(=O)[C@@H](NC(=O)OC)C(C)C)[nH]4)ccc32)[nH]1)C(C)C` (stereo partly specified), the EC90 came out at 69 pM with Huh-7 [1]; 56 pM in test [2]; 4 pM in the test with Huh-7 [3]; 2 pM in the test on Huh-7 [4]; 2 pM with Huh-7 [5]; 3 pM in test [6].
Consider `COC(=O)N[C@H](C(=O)N1CCC[C@H]1c1ncc(-c2cc(F)c3c(c2)OC(c2cc4c(s2)CCC4)n2c-3cc3cc(-c4cnc([C@@H]5CCCN5C(=O)[C@@H](NC(=O)OC)C(C)C)[nH]4)ccc32)[nH]1)C(C)C` (stereo partly specified), for which the EC90 came out at 240 pM with Huh-7 [1]; 260 pM in test [2]; 7 pM in the test on Huh-7 [3]; 5 pM in the test with Huh-7 [4]; 3 pM with Huh-7 [5]; 3 pM in test [6].
For the molecule `COC(=O)N[C@H](C(=O)N1CCC[C@H]1c1ncc(-c2cc(F)c3c(c2)OC(c2ccc(C(C)C)s2)n2c-3cc3cc(-c4cnc([C@@H]5CCCN5C(=O)[C@@H](NC(=O)OC)C(C)C)[nH]4)ccc32)[nH]1)C(C)C` (stereo partly specified), the EC90 in the test on Huh-7 [1] came to 520 pM; in test [2] it was 130 pM; in the test on Huh-7 [3], 1 pM; with Huh-7 [4], 3 pM; in the test with Huh-7 [5], 2 pM; in test [6], 10 pM.
`COC(=O)N[C@H](C(=O)N1CCC[C@H]1c1ncc(-c2cc(F)c3c(c2)OC(c2cnns2)n2c-3cc3cc(-c4cnc([C@@H]5CCCN5C(=O)[C@@H](NC(=O)OC)C(C)C)[nH]4)ccc32)[nH]1)C(C)C` (stereo partly specified): the EC90 in the test on Huh-7 [1] turned out to be 720 pM; in test [2], 360 pM; in the test with Huh-7 [3] it was 47 pM; in the test on Huh-7 [4], 12 pM; in the test with Huh-7 [5], 3 pM; in test [6] it was 140 pM.
For the molecule `COC(=O)N[C@H](C(=O)N1CCC[C@H]1c1ncc(-c2cc(F)c3c(c2)OC(c2nc4ccccc4o2)n2c-3cc3cc(-c4cnc([C@@H]5CCCN5C(=O)[C@@H](NC(=O)OC)C(C)C)[nH]4)ccc32)[nH]1)C(C)C` (stereo partly specified), the EC90 in the test on Huh-7 [1] came out at 1000 pM; in test [2] it was 320 pM; in the test on Huh-7 [3], 25 pM; with Huh-7 [4], 8 pM; in the test with Huh-7 [5] it was 4 pM; in test [6], 42 pM.
As to `COC(=O)N[C@H](C(=O)N1CCC[C@H]1c1ncc(-c2cc(F)c3c(c2)OC(c2cnc(C4(C)CC4)s2)n2c-3cc3cc(-c4cnc([C@@H]5CCCN5C(=O)[C@@H](NC(=O)OC)C(C)C)[nH]4)ccc32)[nH]1)C(C)C` (stereo partly specified), the EC90 with Huh-7 [1] came to 680 pM; in test [2], 380 pM; with Huh-7 [3], 46 pM; in the test on Huh-7 [4], 27 pM; with Huh-7 [5] it was 17 pM; in test [6], 65 pM.
For the molecule `COC(=O)N[C@H](C(=O)N1CCC[C@H]1c1ncc(-c2cc(F)c3c(c2)OC(c2sccc2C2CC2)n2c-3cc3cc(-c4cnc([C@@H]5CCCN5C(=O)[C@@H](NC(=O)OC)C(C)C)[nH]4)ccc32)[nH]1)C(C)C` (stereo partly specified), the EC90 is over 33000 pM with Huh-7 [1]; 70000 pM in test [2]; 4700 pM in the test on Huh-7 [3]; 320 pM in the test on Huh-7 [4]; 12 pM in the test with Huh-7 [5]; 1740 pM in test [6].
Regarding `COC(=O)N[C@H](C(=O)N1CCC[C@H]1c1ncc(-c2cc(F)c3c(c2)OC(c2ccc(C(F)(F)F)s2)n2c-3cc3cc(-c4cnc([C@@H]5CCCN5C(=O)[C@@H](NC(=O)OC)C(C)C)[nH]4)ccc32)[nH]1)C(C)C` (stereo partly specified), the EC90 turned out to be 310 pM in the test on Huh-7 [1]; 310 pM in test [2]; 7 pM with Huh-7 [3]; 3 pM in the test on Huh-7 [4]; 3 pM with Huh-7 [5]; 97 pM in test [6].
With `COC(=O)N[C@H](C(=O)N1CCC[C@H]1c1ncc(-c2cc(F)c3c(c2)OC(c2ccc(C4CC4)s2)n2c-3cc3cc(-c4cnc([C@@H]5C[C@H]6C[C@H]6N5C(=O)[C@@H](NC(=O)OC)C(C)C)[nH]4)ccc32)[nH]1)C(C)C` (stereo partly specified), the EC90 with Huh-7 [1] was determined as 300 pM; in test [2], 30 pM; in the test with Huh-7 [3], 7 pM; with Huh-7 [4], 5 pM; in the test with Huh-7 [5] it was 4 pM; in test [6] it was 12 pM.
In the case of `COC(=O)N[C@H](C(=O)N1CCC[C@H]1c1ncc(-c2cc(F)c3c(c2)OC(c2ccc(CC(F)(F)F)s2)n2c-3cc3cc(-c4cnc([C@@H]5CCCN5C(=O)[C@@H](NC(=O)OC)C(C)C)[nH]4)ccc32)[nH]1)C(C)C` (stereo partly specified), the EC90 is 650 pM with Huh-7 [1]; 100 pM in test [2]; 7 pM with Huh-7 [3]; 4 pM in the test with Huh-7 [4]; 1 pM in the test on Huh-7 [5]; 22 pM in test [6].
On to `COC(=O)N[C@H](C(=O)N1CCC[C@H]1c1ncc(-c2cc(F)c3c(c2)OC(c2cc4c(s2)CCC4)n2c-3cc3cc(-c4cnc([C@@H]5C[C@H]6C[C@H]6N5C(=O)[C@@H](NC(=O)OC)C(C)C)[nH]4)ccc32)[nH]1)C(C)C` (stereo partly specified), for which the EC90 was found to be 670 pM in the test with Huh-7 [1]; 200 pM in test [2]; 12 pM in the test with Huh-7 [3]; 5 pM with Huh-7 [4]; 6 pM in the test with Huh-7 [5]; 15 pM in test [6].
On to `COC(=O)N[C@H](C(=O)N1CCC[C@H]1c1ncc(-c2cc(F)c3c(c2)OC(c2ccc(C4CC4(F)F)s2)n2c-3cc3cc(-c4cnc([C@@H]5CCCN5C(=O)[C@@H](NC(=O)OC)C(C)C)[nH]4)ccc32)[nH]1)C(C)C` (stereo partly specified), for which the concentration for an effect of 90% (EC90) with Huh-7 [1] amounted to 430 pM; in test [2], 84 pM; in the test with Huh-7 [3], 7 pM; in the test on Huh-7 [4], 3 pM; in the test on Huh-7 [5], 2 pM; in test [6] it was 20 pM.
`COCc1ccc(C2Oc3cc(-c4cnc([C@@H]5CCCN5C(=O)[C@@H](NC(=O)OC)C(C)C)[nH]4)cc(F)c3-c3cc4cc(-c5cnc([C@@H]6CCCN6C(=O)[C@@H](NC(=O)OC)C(C)C)[nH]5)ccc4n32)s1` (stereo partly specified): the EC90 worked out at 540 pM in the test on Huh-7 [1]; 220 pM in test [2]; 16 pM in the test with Huh-7 [3]; 9 pM in the test on Huh-7 [4]; 5 pM with Huh-7 [5]; 49 pM in test [6].
As to `COC(=O)N[C@H](C(=O)N1CCC[C@H]1c1ncc(-c2cc(F)c3c(c2)OC(c2cnc(C(C)C)s2)n2c-3cc3cc(-c4cnc([C@@H]5C[C@H]6C[C@H]6N5C(=O)[C@@H](NC(=O)OC)C(C)C)[nH]4)ccc32)[nH]1)C(C)C` (stereo partly specified), the EC90 in the test with Huh-7 [1] is 230 pM; in test [2], 28 pM; in the test with Huh-7 [3], 6 pM; in the test on Huh-7 [4], 6 pM; with Huh-7 [5] it was 3 pM; in test [6] it was 8 pM.
For the molecule `COC(=O)N[C@H](C(=O)N1CCC[C@H]1c1ncc(-c2cc(F)c3c(c2)OC(c2cc(C)c(C4CC4)s2)n2c-3cc3cc(-c4cnc([C@@H]5CCCN5C(=O)[C@@H](NC(=O)OC)C(C)C)[nH]4)ccc32)[nH]1)C(C)C` (stereo partly specified), the EC90 with Huh-7 [1] amounted to 880 pM; in test [2], 1700 pM; with Huh-7 [3], 4 pM; in the test on Huh-7 [4], 2 pM; in the test with Huh-7 [5], 2 pM; in test [6] it was 9 pM.
